Source: the NIST ThermoML archive (doi:10.1016/j.fluid.2008.06.004)
Values joined by “and” are separate entries in the source; they are usually repeats but may differ in a detail not shown here. Equal entries are not always repeated.

Tests used:
[1] = refractive index (Na D-line) (dimensionless); conditions: 298.15 K; 101.33 kPa; Liquid; Standard Abbe refractometry
[2] = Liquid; for mass density: 298.15 K, 101.33 kPa

CCCO [propan-1-ol]
Conditions | mass density [kg/m3] | refractive index
[1] | – | 1.38305
[2] | 799.44 | –

[2]
Conditions | vapor or sublimation pressure [kPa]
332.67 K | 20
370.21 K | 101.3

CCO [ethanol]
Conditions | mass density [kg/m3] | refractive index
[1] | – | 1.35939
[2] | 786.47 | –

[2], Ebulliometric method (Recirculating still)
Conditions | vapor or sublimation pressure [kPa]
315.41 K | 20
351.46 K | 101.3

CC(C)O [propan-2-ol]
Conditions | mass density [kg/m3] | refractive index
[1] | – | 1.37497
[2] | 780.75 | –

[2], Ebulliometric method (Recirculating still)
Conditions | vapor or sublimation pressure [kPa]
319.8 K | 20
355.4 K | 101.3

CCC(C)=O [butanone]
Conditions | mass density [kg/m3] | refractive index
[1] | – | 1.37614
[2] | 799.62 | –

[2], Ebulliometric method (Recirculating still)
Conditions | vapor or sublimation pressure
308.22 K | 18.73 kPa
309.55 K | 20 kPa
310.48 K | 20.76 kPa
312.56 K | 22.74 kPa
313.8 K | 24.01 kPa
316.39 K | 26.73 kPa
318.16 K | 28.71 kPa
319.63 K | 30.72 kPa
321.2 K | 32.71 kPa
324.08 K | 36.72 kPa
326.86 K | 40.72 kPa
329.31 K | 44.73 kPa
331.49 K | 48.73 kPa
333.61 K | 52.73 kPa
335.64 K | 56.74 kPa
337.53 K | 60.73 kPa
339.37 K | 64.72 kPa
341.07 K | 68.73 kPa
342.7 K | 72.72 kPa
344.29 K | 76.74 kPa
345.74 K | 80.72 kPa
347.19 K | 84.73 kPa
348.59 K | 88.73 kPa
349.95 K | 92.74 kPa
350.49 K | 94.41 kPa
351.4 K | 97.29 kPa
352.68 K | 101.32 kPa and 101.3 kPa
354.04 K | 105.95 kPa
355.29 K | 110.24 kPa
356.39 K | 114.07 kPa
357.91 K | 119.51 kPa
359.12 K | 124.08 kPa
360.32 K | 128.72 kPa
361.22 K | 132.46 kPa
362.08 K | 135.91 kPa
